Source: patent US20120010075A1 (priority 2009, published 2012)

Key:
[1] = system: Leptosphaeria nodorum (LEPTNO); test: In vitro fungitoxicity of hydrazones with and without copper towards Leptosphaeria nodorum (Example 26); format: cell-based; settings: compound 0.05 μg/mL, 72 h at 25° C.; for inhibition of growth at 0.05 µg/mL: Parastagonospora nodorum, 72 h, copper-minus medium, read-out: LEPTNO % Inhn. Minus Copper Observed; for LEPTNO % Inhn. Plus Copper Observed: copper-plus medium (CuCl2.2H2O)
Phytophthora infestans = format: in vivo, Phytophthora infestans on tomato; settings: hydrazone 50 ppm + 50 μM CuCl2.2H2O, applied 24 h before inoculation, assessed 7 days after inoculation, tomato

SMILES | inhibition of growth at 0.05 µg/mL [1] | LEPTNO % Inhn. Plus Copper Observed [1] | TLB % Control (Phytophthora infestans) | melting point
C/C(=N\NC(=O)c1cccc(C)c1)c1ccc(Cl)cc1O [Example 253] | 4.9% | 98.0% | 14.0% | 210 to 211 °C
C/C(=N\NC(=O)c1ccc(C)cc1)c1ccc(Cl)cc1O [Example 254] | 8.3% | 98.1% | 0.0% | 254 to 256 °C
C/C(=N\NC(=O)c1ccccc1Cl)c1ccc(Cl)cc1O [Example 255] | 3.6% | 98.2% | 28.0% | 183 to 184 °C
C/C(=N\NC(=O)c1cccc(Cl)c1)c1ccc(Cl)cc1O [Example 256] | 3% | 98.7% | 18.0% | 222 to 223 °C
C/C(=N\NC(=O)c1ccc(Cl)cc1)c1ccc(Cl)cc1O [Example 257] | 6% | 94.4% | 21.0% | 246 to 247 °C
Cc1ccc(O)c(C(=O)N/N=C/c2cc(Cl)cc(Cl)c2O)c1 [Example 258] | 34.1% | 97.4% | 87.0% | 277 to 280 °C
CNc1ccc(C(=O)N/N=C/c2cc(Cl)cc(Cl)c2O)cc1 [Example 259] | 9.9% | 97.9% | 32.0% | 245 to 253 °C
CCc1ccc(C(=O)N/N=C/c2cc(Cl)cc(Cl)c2O)cc1 [Example 260] | 11.2% | 97.1% | 81.0% | 286 to 289 °C
COc1ccc(O)c(/C(C)=N/NC(=O)c2ccccc2)c1 [Example 261] | 2.7% | 97.9% | 10.0% | 150 to 152 °C
COc1ccc(O)c(/C(C)=N/NC(=O)c2ccccc2C)c1 [Example 262] | 3.1% | 94.0% | 4.6% | 146 to 155 °C
COc1ccc(O)c(/C(C)=N/NC(=O)c2cccc(C)c2)c1 [Example 263] | 4.1% | 97.9% | 14.0% | 131 to 141 °C
COc1ccc(O)c(/C(C)=N/NC(=O)c2ccc(C)cc2)c1 [Example 264] | 6% | 98.4% | 21.0% | 159 to 162 °C
COc1ccc(O)c(/C(C)=N/NC(=O)c2ccccc2Cl)c1 [Example 265] | 0% | 98.1% | 15.0% | 170 to 184 °C
COc1ccc(O)c(/C(C)=N/NC(=O)c2cccc(Cl)c2)c1 [Example 266] | 4.5% | 95.4% | 28.0% | 190 to 201 °C
COc1ccc(O)c(/C(C)=N/NC(=O)c2ccc(Cl)cc2)c1 [Example 267] | 5.7% | 98.3% | 33.0% | 193 to 196 °C
C/C(=N\NC(=O)c1ccccc1)c1cccc([N+](=O)[O-])c1O [Example 268] | 1.2% | 98.7% | 31.0% | 215 to 224 °C

SMILES | inhibition of growth at 0.05 µg/mL [1] | LEPTNO % Inhn. Plus Copper Observed [1] | TLB % Control (Phytophthora infestans) | melting point
C/C(=N\NC(=O)c1ccccc1C)c1cccc([N+](=O)[O-])c1O [Example 269] | 0% | 98.8% | 21.0% | 193 to 196 °C
C/C(=N\NC(=O)c1cccc(C)c1)c1cccc([N+](=O)[O-])c1O [Example 270] | 6.9% | 98.6% | 61.0% | 235 to 239 °C
C/C(=N\NC(=O)c1ccc(C)cc1)c1cccc([N+](=O)[O-])c1O [Example 271] | 6.9% | 98.9% | 61.0% | 242 to 249 °C
C/C(=N\NC(=O)c1ccccc1Cl)c1cccc([N+](=O)[O-])c1O [Example 272] | 2% | 98.1% | 37.0% | 196 to 205 °C
C/C(=N\NC(=O)c1cccc(Cl)c1)c1cccc([N+](=O)[O-])c1O [Example 273] | 0.4% | 97.7% | 44.0% | 251 to 286 °C
C/C(=N\NC(=O)c1ccc(Cl)cc1)c1cccc([N+](=O)[O-])c1O [Example 274] | 0% | 96.3% | 89.0% | 241 to 251 °C
O=C(N/N=C/c1c(O)cc(C(F)(F)F)cc1C(F)(F)F)c1ccccc1 [Example 276] | 5.5% | 97.8% | 71.2% | 144 to 193 °C
COc1ccc(/C(C)=N/NC(=O)c2ccccc2)c(O)c1 [Example 280] | 2.2% | 98.2% | 88.0% | 211 to 213 °C
COc1ccc(/C(C)=N/NC(=O)c2ccccc2C)c(O)c1 [Example 281] | 1.4% | 98.4% | 67.0% | 170 to 172 °C
COc1ccc(/C(C)=N/NC(=O)c2cccc(C)c2)c(O)c1 [Example 282] | 0% | 94.7% | 52.0% | 184 to 185 °C
COc1ccc(/C(C)=N/NC(=O)c2ccc(C)cc2)c(O)c1 [Example 283] | 0% | 95.9% | 67.0% | 206 to 207 °C
COc1ccc(/C(C)=N/NC(=O)c2ccccc2Cl)c(O)c1 [Example 284] | 0% | 97.1% | 74.0% | 174 to 175 °C
COc1ccc(/C(C)=N/NC(=O)c2cccc(Cl)c2)c(O)c1 [Example 285] | 3.4% | 97.5% | 51.0% | 212 to 214 °C
COc1ccc(/C(C)=N/NC(=O)c2ccc(Cl)cc2)c(O)c1 [Example 286] | 2.3% | 98.4% | 75.0% | 227 to 229 °C
C/C(=N\NC(=O)c1ccccc1)c1cc(Br)ccc1O [Example 287] | 0% | 98.3% | 65.0% | 204 to 208 °C
